Source: patent publication US9434711B2 (Janssen Pharmaceutica, NV, priority 2007, dated 2016)

Biological target: canine TRPM8 (Canis lupus familiaris, UniProt Q1A7N1)
Test: In Vitro Canine TRPM8 Functional Assay (Ca2+ fluorescence, icilin activation)
Assay type: cell-based
Conditions: for IC50: HEK293 cells stably expressing canine TRPM8, icilin activation, eight-point dose-response, read-out: IC50; for inhibition at 0.2 µM: compound at 0.2 μM, canine TRPM8, icilin activation, read-out: % Inh @ 0.2
Method in brief: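 Cells (HEK293, stable canine TRPM8) are seeded 24 h before assay. They are then dye-loaded with Calcium 3 at 37 °C followed by room temperature. Compound is added and monitored for 5 min, after which icilin (~80% maximal response) is added.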

Sequence of canine TRPM8 (Q1A7N1 1-1104): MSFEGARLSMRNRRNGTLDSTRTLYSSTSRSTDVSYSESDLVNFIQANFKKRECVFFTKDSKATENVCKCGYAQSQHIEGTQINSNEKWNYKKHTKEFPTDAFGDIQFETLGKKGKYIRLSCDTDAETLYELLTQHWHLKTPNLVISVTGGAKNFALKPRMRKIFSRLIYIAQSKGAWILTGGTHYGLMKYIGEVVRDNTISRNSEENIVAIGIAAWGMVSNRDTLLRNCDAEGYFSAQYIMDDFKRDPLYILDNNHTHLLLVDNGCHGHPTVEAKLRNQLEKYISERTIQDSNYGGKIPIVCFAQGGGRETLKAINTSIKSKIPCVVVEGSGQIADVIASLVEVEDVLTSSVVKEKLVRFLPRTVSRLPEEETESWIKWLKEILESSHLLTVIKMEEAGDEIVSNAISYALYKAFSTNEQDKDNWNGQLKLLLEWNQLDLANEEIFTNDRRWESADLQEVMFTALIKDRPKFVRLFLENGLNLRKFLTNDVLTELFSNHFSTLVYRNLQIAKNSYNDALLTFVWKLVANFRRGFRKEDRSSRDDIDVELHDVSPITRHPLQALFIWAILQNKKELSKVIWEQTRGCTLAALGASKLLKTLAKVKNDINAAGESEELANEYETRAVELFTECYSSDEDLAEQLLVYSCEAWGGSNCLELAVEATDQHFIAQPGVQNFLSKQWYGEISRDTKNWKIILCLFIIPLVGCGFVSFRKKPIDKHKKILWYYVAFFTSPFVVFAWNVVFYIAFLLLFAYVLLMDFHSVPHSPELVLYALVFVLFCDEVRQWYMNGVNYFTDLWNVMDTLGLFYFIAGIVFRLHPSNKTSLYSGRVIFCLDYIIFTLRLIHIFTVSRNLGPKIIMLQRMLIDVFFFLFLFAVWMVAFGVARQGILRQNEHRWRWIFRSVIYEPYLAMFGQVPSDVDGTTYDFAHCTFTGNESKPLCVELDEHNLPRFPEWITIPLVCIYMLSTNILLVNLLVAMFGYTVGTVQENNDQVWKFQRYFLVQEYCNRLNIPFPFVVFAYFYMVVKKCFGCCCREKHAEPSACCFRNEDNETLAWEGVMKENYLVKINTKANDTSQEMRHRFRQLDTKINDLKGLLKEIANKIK

`CCCCN(c1sc2ccccc2c1Cl)S(=O)(=O)c1ccc(N(C)C)cc1` [Compound 561, N-(3-Chloro-benzo[b]thiophen-2-yl)-N-(butyl)-4-dimethylamino-benzenesulfonamide] was tested. Which IC50 did it give?
Its IC50 is 28.4 nM.

And the inhibition at 0.2 µM?
Its inhibition at 0.2 µM is 103%.

Which IC50 does the source give for `CCCCN(c1sc2ccccc2c1Cl)S(=O)(=O)c1ccc(N2CCOCC2)cc1` [Compound 562, N-(3-Chloro-benzo[b]thiophen-2-yl)-N-(butyl)-4-morpholin-4-yl-benzenesulfonamide] here?
The IC50 was 33.1 nM.

And the inhibition at 0.2 µM?
Its inhibition at 0.2 µM is 103%.

How did the IC50 turn out when `COC(=O)c1ccc(S(=O)(=O)N(Cc2ccc(F)c(C(F)(F)F)c2)c2sc3ccccc3c2C(C)C)cc1` [Compound 563, N-(4-Fluoro-3-trifluoromethyl-benzyl)-N-(3-isopropyl-benzo[b]thiophen-2-yl)-4-carbomethoxy-benzenesulfonamide] was run?
Its IC50 is 49.3 nM.

And the inhibition at 0.2 µM?
The inhibition at 0.2 µM was 94%.

`COC(=O)c1ccc(S(=O)(=O)N(CCC2CC2)c2sc3ccccc3c2C(C)C)cc1` [Compound 564, N-(2-Cyclopropyl-ethyl)-N-(3-isopropyl-benzo[b]thiophen-2-yl)-4-carbomethoxy-benzenesulfonamide] was tested. Which inhibition at 0.2 µM did it give?
Its inhibition at 0.2 µM is 57.7%.

What does the source list for `COC(=O)c1ccc(S(=O)(=O)N(CCCCC(F)(F)F)c2sc3ccccc3c2C(C)C)cc1` [Compound 565, N-(3-Isopropyl-benzo[b]thiophen-2-yl)-N-(5,5,5-trifluoro-pentyl)-4-carbomethoxy-benzenesulfonamide]?
IC50: 117 nM; inhibition at 0.2 µM: 74.4%

How did the IC50 turn out when `CC(C)c1c(N(Cc2ccc(F)c(C(F)(F)F)c2)S(=O)(=O)c2ccc(C(=O)O)cc2)sc2ccccc12` [Compound 566, N-(4-Fluoro-3-trifluoromethyl-benzyl)-N-(3-isopropyl-benzo[b]thiophen-2-yl)-4-carboxy-benzenesulfonamide] was run?
The IC50 was 1.8 nM.

And the inhibition at 0.2 µM?
Its inhibition at 0.2 µM is 104%.

What does the source list for `CC(C)c1c(N(CCC2CC2)S(=O)(=O)c2ccc(C(=O)O)cc2)sc2ccccc12` [Compound 567, N-(2-Cyclopropyl-ethyl)-N-(3-isopropyl-benzo[b]thiophen-2-yl)-4-carboxy-benzenesulfonamide]?
IC50: 10.3 nM; inhibition at 0.2 µM: 104%

`CC(C)c1c(N(CCCCC(F)(F)F)S(=O)(=O)c2ccc(C(=O)O)cc2)sc2ccccc12` [Compound 568, N-(5,5,5-Trifluoro-pentyl)-N-(3-isopropyl-benzo[b]thiophen-2-yl)-4-carboxy-benzenesulfonamide] was tested. Which IC50 did it give?
Its IC50 is 2.4 nM.

And the inhibition at 0.2 µM?
Its inhibition at 0.2 µM is 104%.

How did the IC50 turn out when `O=S(=O)(c1ccc(-c2nnn[nH]2)cc1)N(CCC1CC1)c1cc2ccccc2s1` [Compound 569, N-(Benzo[b]thiophen-2-yl)-N-(2-cyclopropyl-ethyl)-4-(1H-tetrazol-5-yl)-benzenesulfonamide] was run?
Its IC50 is 35 nM.

And the inhibition at 0.2 µM?
The inhibition at 0.2 µM was 88%.

`Cc1c(N(CCC2CC2)S(=O)(=O)c2ccc(-c3nnn[nH]3)cc2)sc2ccccc12` [Compound 570, N-(3-Methyl-benzo[b]thiophen-2-yl)-N-(cyclopropyl-ethyl)-4-(1H-tetrazol-5-yl)-benzenesulfonamide] was tested. Which IC50 did it give?
The IC50 was 6.6 nM.

What about the inhibition at 0.2 µM of the same compound?
The inhibition at 0.2 µM was 101%.

For `O=S(=O)(c1ccc(-c2nnn[nH]2)cc1)N(CCC(F)(F)F)c1cc2ccccc2s1` [Compound 571, N-(Benzo[b]thiophen-2-yl)-N-(3,3,3-trifluoro-propyl)-4-(1H-tetrazol-5-yl)-benzenesulfonamide], which inhibition at 0.2 µM is on record?
The inhibition at 0.2 µM was 14%.

Which results are given for `Cc1c(N(CCC(F)(F)F)S(=O)(=O)c2ccc(-c3nnn[nH]3)cc2)sc2ccccc12` [Compound 572, N-(3-Methyl-benzo[b]thiophen-2-yl)-N-(3,3,3-trifluoro-propyl)-4-(1H-tetrazol-5-yl)-benzenesulfonamide]?
IC50: 16.6 nM; inhibition at 0.2 µM: 101%

`N#Cc1cccc(S(=O)(=O)N(CCC(F)(F)F)c2cc3ccccc3s2)c1` [Compound 573, N-(Benzo[b]thiophen-2-yl)-N-(3,3,3-trifluoro-propyl)-3-cyano-benzenesulfonamide] was tested. Which inhibition at 0.2 µM did it give?
The inhibition at 0.2 µM was 28%.
